Measured values: patent publication US9776992B2, “1-oxo-1,2-dihydroisoquinolin-7-yl-(5-substituted-thiophen-2-yl)-sulfonamide compounds, formulations containing those compounds, and their use as AICARFT inhibitors in the treatment of cancers” (Eli Lilly and Company, priority 2014, dated 2017)

Tests used:
AICARFT = AICARFT (Homo sapiens, UniProt P31939); experiment: AICARFT in vivo target inhibition (IVTI) assay, tumor xenografts (ZMP); set-up: from tissue; host or cells: HCT-116 and NCI-H460 tumour xenografts in female athymic nude mice; species or system mouse
Protocol: The in vivo effects of AICARFT inhibition on the concentrations of pathway-related analytes are determined by liquid chromatography-mass spectrometry (LC-MS) analysis of tumor xenografts. Tumor xenograft samples on dry ice are weighed on an analytical balance, transferred to 2 mL Eppendorf Safe-Lock Tube™, and placed on dry ice. An internal standard solution containing 13C5-ZMP (1000 ng/mL), 13C5-AICAr (500 ng/mL), ascorbic acid (0.1%), and formic acid (0.1%) in MeOH/DCM (80:20) is prepared and stored at 20° C. For every mg of tissue in the sample tube, 10 L of internal standard solution is added. Standard curves containing ZMP, dUMP, AICAr at concentrations of 7.6-50,000 ng/mL are prepared separately in the internal standard solution.
One 5 mm steel bead (Qiagen) is added to each sample tube and the tubes are placed on wet ice for 15 minutes. Samples are homogenized on a Qiagen TissueLyser II for 5 minutes at 15 Hz, and then centrifuged on an Eppendorf 5430R microcentrifuge for 10 minutes at 13,000 rpm and 4° C. Aliquots of each supernatant (200 μL) are removed and placed into a deep 96-well plate. Aliquots (200 μL) of each standard curve solution are also placed in a deep 96-well plate. A Beckman Biomek FX liquid handler added DCM (600 μL) and 0.1% ascorbic acid solution (200 μL) to each well. The plate is sealed, vortexed for 5 minutes, and centrifuged for 5 minutes at 4,000 rpm and 4° C. on an Eppendorf 5810R centrifuge. Aliquots (75 μL) of the top layer are transferred to a clean 96-well plate, and an additional 75 μL of 40 mM ammonium acetate, pH 4 is added to each well. The plates are sealed prior to analysis. The LC-MS method utilized a Shimadzu Prominence 20A HPLC system connected to an AB Sciex 5500™ or an AB Sciex 6500™ triple quadrupole mass spectrometer running Analyst® software.

[1] = tested on: colorectal carcinoma HCT-116; experiment: Low folate in vitro proliferation assay, HCT-116; type: cell-based; conditions: Homo sapiens, 168 h; HCT-116, low folate media, 7 days
Description: Allow cells to attach overnight. […] Final concentration of compounds will be 1×. […] Dose cells with compounds of interest for 7 days. […] Determine % inhibition for each sample (see Table 18).

[2] = tested on: panel of 46 cancer cell lines; experiment: Low folate in vitro proliferation assay, cancer cell line panel (Alamar Blue); conditions: media conditions with folate levels similar to human plasma; summary of Table 18
Protocol: Supplement 500 mL Gibco folate free RPMI media (Gibco #27016-021) with 1 M Hepes (5 mL), 100 mM Na pyruvate (5 mL) and 0.5 g/mL glucose (2.5 mL) to match high folate ATCC RPMI media (ATCC #30-2001). To make complete media, both regular and folate free RPMI medias are supplemented with 10% FBS. The addition of FBS to folate free media adds low levels of folate and is now considered to be low folate media.
Transfer cells growing in high folate RPMI media (ATCC #30-2001)+10% FBS (Hyclone #SH30070.03) to low folate RPMI media and folate starve for 7 days. Wash cells grown in high folate media with PBS, trypsinize, and resuspend in low folate media. Grow cells in low folate media for 7 days making sure to seed tissue culture flasks at a density that will not exceed 80% confluence after 7 days. Wash cells in PBS, trypsinize, and resuspend in low folate media and count cells. Seed 96 well poly D lysine plate (Corning #354640) at 3000 cells/well in 100 μl low folate media. Allow cells to attach overnight. Prepare 10 mM DMSO stocks of compounds to be tested in proliferation assay. Determine concentrations to be tested and dilute compounds to 2× final concentration in low folate media. Calculate % DMSO of this solution and use this value as diluent. […] Read plates on the Envision plate reader (Perkin Elmer), or other fluorescent plate reader, with excitation at 570 nm and emission at 585 nm. […]

[3] = tested on: human colorectal adenocarcinoma cell line HCT-116 mouse xenograft; experiment: Antitumor efficacy in HCT-116 mouse xenograft tumor model; type: in vivo; conditions: for % T/C: HCT-116 xenograft, Day 23, Delta T/C, * = P<0.05
Protocol: (§1) In vivo studies are performed using female athymic nude mice (Harlan) with a bodyweight of 23-28 g at first measurement. Upon receipt and throughout the study, the animals are housed 5 animals per cage in appropriately sized solid-bottom cages with contact bedding. The animal room is maintained on a 12-hour light/dark cycle. Animals are acclimated for 14 days prior to implantation of the NCI-H460 or HCT-116 cells on low folate diet (Teklad 130451) ad libitum and autoclaved tap water is provided ad libitum. The HCT-116 and NCI-H460 cell line are obtained from American Type Culture Collection (ATCC) and is cultured following ATCC instructions. Cells used for implantation are harvested during log phase growth and suspended in serum-free media. The suspended cells are then diluted 1:1 with BD Matrigel Matrix (ref 354234). Cells are injected in the right flank with 5.0E+06 cells (0.2 mL cell/Matrigel suspension). Tumors are monitored beginning day 8 post implant. Animals are redistributed into groups with 5-6 animals per group utilizing proprietary randomization software when average tumor volume reaches 200 mm^3. Groups 1-12 are maintained on a low folate diet (Teklad 130451) and folic acid (Sigma F8798 Lot #SLBH0909V) administration at doses listed in the Table 19 began 28 hours prior to dose initiation and 4 hours prior to each dose. Folic acid is formulated weekly in PBS and dosed via oral gavage at 0.2 mL. Groups 13-16 are placed on standard chow (Teklad 2920X) at randomization. The compound is formulated weekly in 20% HPBCD in Phosphate buffer pH 8 with one molar equivalent NaOH added. The formulated compound is administered at the doses and schedules indicated in Table 19 by oral gavage (0.2 mL). The vehicle is also given QD as the control arm of the study. Tumor volume and body weight are measured 2× a week. Tumor volume is determined by caliper measurements (mm) and using the formula for an ellipsoid sphere: tumor volume (mm^3)=length×width^2/2, where length and width refer to the larger and smaller perpendicular dimensions collected at each measurement. The animal behavior and animal health are monitored daily during dosing period.
The statistical analysis of the tumor volume data begins with a data transformation to a log scale to equalize variance across time and treatment groups. The log volume data are analyzed with a two-way repeated measures analysis of variance by time and treatment using the MIXED procedures in SAS software (Version 9.3). The correlation model for the repeated measures is Spatial Power. Treated groups are compared to the control group at each time point. The MIXED procedure is also used separately for each treatment group to calculate adjusted means and standard errors at each time point. Both analyses account for the autocorrelation within each animal and the loss of data that occurs when animals with large tumors are removed from the study early. The adjusted means and standard errors are plotted for each treatment group vs time. The analysis comparing the treated groups to the control groups at each time point uses the log 10 tumor volumes and produces the p-values. For statistical significance of p-values shown, “*”=P<0.05.
Delta T/C, % calculation is used. Equations: T=Final tumor volume in treated group; T0=Baseline tumor volume in treated group (assumed to be same as C0); C=Final tumor volume in control group; C0=Baseline tumor volume in control group (assumed to be same as T0); Delta T/C, %=100*(T−T0)/(C−C0)

[4] = tested on: human lung carcinoma NCI-H460 mouse xenograft; experiment: Antitumor efficacy in NCI-H460 mouse xenograft tumor model; type: in vivo; conditions: for % T/C: NCI-H460 xenograft, no folic acid, Day 20, Delta T/C, * = P<0.05
Protocol: as §1, with “Folic acid is formulated weekly in PBS and dosed via oral gavage at 0.2 mL. Groups 13-16 are placed on standard chow (Teklad 2920X) at randomization. The compound is formulated weekly in 20% HPBCD in Phosphate buffer pH 8 with one molar equivalent NaOH added. The formulated compound is administered at the doses and schedules indicated in Table 19 by oral gavage (0.2 mL). The vehicle is also given QD as the control arm of the study.” left out
The statistical analysis of the tumor volume data begins with a data transformation to a log scale to equalize variance across time and treatment groups. The log volume data are analyzed with a two-way repeated measures analysis of variance by time and treatment using the MIXED procedures in SAS software (Version 9.3). […]

Chain of AICARFT (P31939 whole entry): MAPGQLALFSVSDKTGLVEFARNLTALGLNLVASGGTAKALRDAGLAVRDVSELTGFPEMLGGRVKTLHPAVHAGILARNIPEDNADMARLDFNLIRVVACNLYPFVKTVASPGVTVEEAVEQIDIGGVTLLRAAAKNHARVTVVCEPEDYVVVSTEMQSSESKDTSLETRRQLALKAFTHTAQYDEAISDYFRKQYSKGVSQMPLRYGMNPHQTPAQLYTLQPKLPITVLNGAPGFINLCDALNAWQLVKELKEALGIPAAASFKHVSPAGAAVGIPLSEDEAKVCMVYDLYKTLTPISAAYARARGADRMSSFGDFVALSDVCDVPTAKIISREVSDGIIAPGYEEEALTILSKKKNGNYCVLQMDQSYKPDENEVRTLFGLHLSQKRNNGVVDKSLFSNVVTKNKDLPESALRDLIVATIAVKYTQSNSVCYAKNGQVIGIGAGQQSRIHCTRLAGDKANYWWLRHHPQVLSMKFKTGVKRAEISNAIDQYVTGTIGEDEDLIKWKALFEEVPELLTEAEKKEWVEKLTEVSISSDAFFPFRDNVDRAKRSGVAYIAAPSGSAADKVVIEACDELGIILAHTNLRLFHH

## O=c1[nH]ccc2cc(F)c(NS(=O)(=O)c3ccc(N4CC[C@@H](O)C4)s3)cc12 [Example 1, N-(6-Fluoro-1-oxo-1,2-dihydroisoquinolin-7-yl)-5-[(3R)-3-hydroxypyrrolidin-1-yl]thiophene-2-sulfonamide]
AICARFT; HCT-116 xenograft, Group 6, low folate diet, folic acid 0.75 mg/kg (QD × 15, orally), 10 mg/kg QD × 14, orally, Day 23
  Mean tumor ZMP: 20 µM
AICARFT; HCT-116 xenograft, Group 7, low folate diet, folic acid 0.75 mg/kg (QD × 15, orally), 30 mg/kg QD × 14, orally, Day 23
  Mean tumor ZMP: 35 µM
AICARFT; HCT-116 xenograft, Group 14, standard chow, no folic acid, 10 mg/kg QD × 14, orally, Day 23
  Mean tumor ZMP: 7.0 µM
AICARFT; HCT-116 xenograft, Group 15, standard chow, no folic acid, 30 mg/kg QD × 14, orally, Day 23
  Mean tumor ZMP: 26 µM
AICARFT; NCI-H460 xenograft, Group 14, standard chow, no folic acid, 10 mg/kg QD × 13, orally, Day 20
  Mean tumor ZMP: 3.7 µM
AICARFT; NCI-H460 xenograft, Group 15, standard chow, no folic acid, 30 mg/kg QD × 13, orally, Day 20
  Mean tumor ZMP: 66 µM
[1]
  IC50: 3 nM
[2]
  inhibition of proliferation of cancer cells (in words): inhibits proliferation of cancer cells
[3]; HCT-116 xenograft tumors, QD continuously for 2 weeks
  in vivo anticancer activity (in words): demonstrates in vivo anticancer activity
[3]; Group 6, low folate diet, folic acid 0.75 mg/kg (QD × 15, orally), 10 mg/kg QD × 14, orally
  % T/C: 65* %
[3]; Group 7, low folate diet, folic acid 0.75 mg/kg (QD × 15, orally), 30 mg/kg QD × 14, orally
  % T/C: 57* %
[3]; Group 14, standard chow, no folic acid, 10 mg/kg QD × 14, orally
  % T/C: 112%
[3]; Group 15, standard chow, no folic acid, 30 mg/kg QD × 14, orally
  % T/C: 49%
[4]; NCI-H460 xenograft tumors, QD continuously for 2 weeks
  in vivo anticancer activity (in words): demonstrates in vivo anticancer activity
[4]; Group 14, standard chow, 10 mg/kg QD × 13, orally
  % T/C: 113%
[4]; Group 15, standard chow, 30 mg/kg QD × 13, orally
  % T/C: 42* %
